# Experimental data reported in PubChem BioAssay (NCI).
#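 96-well plates; 48 h exposure; 5 concentrations. Endpoints by linear interpolation between flanking doses. Not reached: highest tested concentration assigned. The concentration for 50% growth inhibition is given as GI50. At the TGI there is no net growth.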
# Experiments:
# Experiment in all cases: NCI anticancer screen, dose series, 48 h
# 786-0 renal = tested on: 786-0 renal
# A498 renal = tested on: A498 renal
# A549 NSCLC = tested on: A549 NSCLC
# ACHN renal = tested on: ACHN renal
# BT-549 breast = tested on: BT-549 breast
# CAKI-1 renal = tested on: CAKI-1 renal
# CCRF-CEM leukemia = tested on: CCRF-CEM leukemia
# COLO 205 colon = tested on: COLO 205 colon
# DU-145 prostate = tested on: DU-145 prostate
# EKVX NSCLC = tested on: EKVX NSCLC
# HCC-2998 colon = tested on: HCC-2998 colon
# HCT-116 colon = tested on: HCT-116 colon
# HCT-15 colon = tested on: HCT-15 colon
# HL-60(TB) leukemia = tested on: HL-60(TB) leukemia
# HOP-62 NSCLC = tested on: HOP-62 NSCLC
# HOP-92 NSCLC = tested on: HOP-92 NSCLC
# HS 578T breast = tested on: HS 578T breast
# HT29 colon = tested on: HT29 colon
# IGROV1 ovarian = tested on: IGROV1 ovarian
# K-562 leukemia = tested on: K-562 leukemia
# KM12 colon = tested on: KM12 colon
# LOX IMVI melanoma = tested on: LOX IMVI melanoma
# M14 melanoma = tested on: M14 melanoma
# MALME-3M melanoma = tested on: MALME-3M melanoma
# MCF7 breast = tested on: MCF7 breast
# MDA-MB-231 breast = tested on: MDA-MB-231 breast
# MDA-MB-435 = tested on: MDA-MB-435
# MDA-MB-468 breast = tested on: MDA-MB-468 breast
# MOLT-4 leukemia = tested on: MOLT-4 leukemia
# NCI-H226 lung = tested on: NCI-H226 lung
# NCI-H23 lung = tested on: NCI-H23 lung
# NCI-H460 lung = tested on: NCI-H460 lung
# NCI-H522 lung = tested on: NCI-H522 lung
# NCI/ADR-RES ovarian = tested on: NCI/ADR-RES ovarian
# OVCAR-3 ovarian = tested on: OVCAR-3 ovarian
# OVCAR-4 ovarian = tested on: OVCAR-4 ovarian
# OVCAR-5 ovarian = tested on: OVCAR-5 ovarian
# OVCAR-8 ovarian = tested on: OVCAR-8 ovarian
# PC-3 prostate = tested on: PC-3 prostate
# RPMI-8226 leukemia = tested on: RPMI-8226 leukemia
# RXF 393 renal = tested on: RXF 393 renal
# SF-268 CNS = tested on: SF-268 CNS
# SF-295 CNS = tested on: SF-295 CNS
# SF-539 CNS = tested on: SF-539 CNS
# SK-MEL-2 melanoma = tested on: SK-MEL-2 melanoma
# SK-MEL-28 melanoma = tested on: SK-MEL-28 melanoma
# SK-MEL-5 melanoma = tested on: SK-MEL-5 melanoma
# SK-OV-3 ovarian = tested on: SK-OV-3 ovarian
# SN12C renal = tested on: SN12C renal
# SNB-19 CNS = tested on: SNB-19 CNS
# SNB-75 CNS = tested on: SNB-75 CNS
# SR leukemia = tested on: SR leukemia
# SW-620 colon = tested on: SW-620 colon
# T-47D breast = tested on: T-47D breast
# TK-10 renal = tested on: TK-10 renal
# U251 CNS = tested on: U251 CNS
# UACC-257 melanoma = tested on: UACC-257 melanoma
# UACC-62 melanoma = tested on: UACC-62 melanoma
# UO-31 renal = tested on: UO-31 renal
structure (smiles),measurement,setting,value
CN1CCN(c2ccc3c(c2)nc(NNC(=O)c2ncccn2)c2cccn23)CC1,GI50,786-0 renal,0.795 µM
same,TGI,786-0 renal,2.11 µM
same,GI50,A498 renal,1.72 µM
same,TGI,A498 renal,3.32 µM
same,GI50,A549 NSCLC,1.7 µM
same,TGI,A549 NSCLC,11.3 µM
same,GI50,ACHN renal,0.712 µM
same,TGI,ACHN renal,6.01 µM
same,GI50,BT-549 breast,0.856 µM
same,TGI,BT-549 breast,2.82 µM
same,GI50,CAKI-1 renal,0.782 µM
same,TGI,CAKI-1 renal,7.62 µM
same,GI50,CCRF-CEM leukemia,0.224 µM
same,TGI,CCRF-CEM leukemia,2.1 µM
same,GI50,COLO 205 colon,0.476 µM
same,TGI,COLO 205 colon,1.72 µM
same,GI50,DU-145 prostate,1.25 µM
same,TGI,DU-145 prostate,11 µM
same,GI50,EKVX NSCLC,0.529 µM
same,TGI,EKVX NSCLC,3.96 µM
same,GI50,HCC-2998 colon,0.706 µM
same,TGI,HCC-2998 colon,3 µM
same,GI50,HCT-116 colon,0.347 µM
same,TGI,HCT-116 colon,2.61 µM
same,GI50,HCT-15 colon,0.762 µM
same,TGI,HCT-15 colon,5.25 µM
same,GI50,HL-60(TB) leukemia,0.556 µM
same,TGI,HL-60(TB) leukemia,4.82 µM
same,GI50,HOP-62 NSCLC,0.453 µM
same,TGI,HOP-62 NSCLC,3.2 µM
same,GI50,HOP-92 NSCLC,0.482 µM
same,TGI,HOP-92 NSCLC,2.46 µM
same,GI50,HS 578T breast,3.01 µM
same,TGI,HS 578T breast,34.5 µM
same,GI50,HT29 colon,0.628 µM
same,TGI,HT29 colon,2.34 µM
same,GI50,IGROV1 ovarian,1.67 µM
same,TGI,IGROV1 ovarian,11 µM
same,GI50,K-562 leukemia,1.88 µM
same,TGI,K-562 leukemia,> 32.4 µM
same,GI50,KM12 colon,0.63 µM
same,TGI,KM12 colon,12.8 µM
same,GI50,LOX IMVI melanoma,0.383 µM
same,TGI,LOX IMVI melanoma,2.64 µM
same,GI50,M14 melanoma,0.611 µM
same,TGI,M14 melanoma,3 µM
same,GI50,MALME-3M melanoma,1.38 µM
same,TGI,MALME-3M melanoma,4.29 µM
same,GI50,MCF7 breast,1.98 µM
same,TGI,MCF7 breast,9.75 µM
same,GI50,MDA-MB-231 breast,0.902 µM
same,TGI,MDA-MB-231 breast,3.99 µM
same,GI50,MDA-MB-435,1.78 µM
same,TGI,MDA-MB-435,13.5 µM
same,GI50,MDA-MB-468 breast,0.408 µM
same,TGI,MDA-MB-468 breast,1.82 µM
same,GI50,MOLT-4 leukemia,0.435 µM
same,TGI,MOLT-4 leukemia,15.6 µM
same,GI50,NCI-H226 lung,0.929 µM
same,TGI,NCI-H226 lung,2.63 µM
same,GI50,NCI-H23 lung,1.89 µM
same,TGI,NCI-H23 lung,10.1 µM
same,GI50,NCI-H460 lung,1.22 µM
same,TGI,NCI-H460 lung,10.5 µM
same,GI50,NCI-H522 lung,0.927 µM
same,TGI,NCI-H522 lung,5.31 µM
same,GI50,NCI/ADR-RES ovarian,2.57 µM
same,TGI,NCI/ADR-RES ovarian,9.44 µM
same,GI50,OVCAR-3 ovarian,0.704 µM
same,TGI,OVCAR-3 ovarian,4.42 µM
same,GI50,OVCAR-4 ovarian,0.725 µM
same,TGI,OVCAR-4 ovarian,4.1 µM
same,GI50,OVCAR-5 ovarian,1.37 µM
same,TGI,OVCAR-5 ovarian,5.8 µM
same,GI50,OVCAR-8 ovarian,0.655 µM
same,TGI,OVCAR-8 ovarian,2.38 µM
same,GI50,PC-3 prostate,0.344 µM
same,TGI,PC-3 prostate,4.12 µM
same,GI50,RPMI-8226 leukemia,2.98 µM
same,TGI,RPMI-8226 leukemia,13.3 µM
same,GI50,RXF 393 renal,1.43 µM
same,TGI,RXF 393 renal,3.99 µM
same,GI50,SF-268 CNS,0.594 µM
same,TGI,SF-268 CNS,11.9 µM
same,GI50,SF-295 CNS,0.622 µM
same,TGI,SF-295 CNS,2.96 µM
same,GI50,SF-539 CNS,1.09 µM
same,TGI,SF-539 CNS,4.2 µM
same,GI50,SK-MEL-2 melanoma,1.28 µM
same,TGI,SK-MEL-2 melanoma,4.21 µM
same,GI50,SK-MEL-28 melanoma,0.849 µM
same,TGI,SK-MEL-28 melanoma,9.03 µM
same,GI50,SK-MEL-5 melanoma,1.16 µM
same,TGI,SK-MEL-5 melanoma,3.17 µM
same,GI50,SK-OV-3 ovarian,0.459 µM
same,TGI,SK-OV-3 ovarian,1.83 µM
same,GI50,SN12C renal,1.39 µM
same,TGI,SN12C renal,10.8 µM
same,GI50,SNB-19 CNS,0.966 µM
same,TGI,SNB-19 CNS,12.5 µM
same,GI50,SNB-75 CNS,0.61 µM
same,TGI,SNB-75 CNS,11.4 µM
same,GI50,SR leukemia,0.433 µM
same,TGI,SR leukemia,11.6 µM
same,GI50,SW-620 colon,0.855 µM
same,TGI,SW-620 colon,3.83 µM
same,GI50,T-47D breast,1.66 µM
same,TGI,T-47D breast,5.78 µM
same,GI50,TK-10 renal,0.489 µM
same,TGI,TK-10 renal,3.05 µM
same,GI50,U251 CNS,0.514 µM
same,TGI,U251 CNS,3.94 µM
same,GI50,UACC-257 melanoma,2.28 µM
same,TGI,UACC-257 melanoma,6.25 µM
same,GI50,UACC-62 melanoma,0.828 µM
same,TGI,UACC-62 melanoma,3.45 µM
same,GI50,UO-31 renal,0.677 µM
same,TGI,UO-31 renal,4.07 µM
